Values quoted from earlier work in paper PMC11434290, “Pharmacokinetics and Dose Proportionality Study of a Novel Antiparkinsonian Agent, a 1H-1,2,4-Triazol-3-ylthio-conjugate of Prottremine” (Molecules, 2024).

Legend:
[1] = tested on: MPTP-, haloperidol-, and rotenone-induced models; settings: various mouse and rat models (MPTP-, haloperidol-, rotenone-induced); cited from earlier work
mice = settings: acute toxicity; cited from earlier work

## C=C(C)[C@@H]1CC=C(C)[C@@H](O)[C@@H]1O [Prottremine, (1R,2R,6S)-3-methyl-6-(prop-1-en-2-yl)cyclohex-3-ene-1,2-diol]
[1]
  Dose showing antiparkinsonian activity: 20 mg/kg
mice
  LD50: 4250 mg/kg

## N[C@@H](Cc1ccc(O)c(O)c1)C(=O)O [L-DOPA, reference compound]
[1]
  Dose showing antiparkinsonian activity: 50 to 100 mg/kg
